Measurements taken from patent US20090036469A1, “2,6-SUBSTITUTED-4-MONOSUBSTITUTED AMINO-PYRIMIDINE AS PROSTAGLANDIN D2 RECEPTOR ANTAGONISTS” (SANOFI-AVENTIS, priority 2006, published 2009).
Structures can show the parent of a compound that is named as a salt.

Target: T1, DP receptor (Homo sapiens, UniProt Q13258)
T1 construct: the human cell line LS174T, which expresses the endogenous DP receptor; endogenous in cells; host or cells: LS174T human cell line
T1 sequence (Q13258 1-359): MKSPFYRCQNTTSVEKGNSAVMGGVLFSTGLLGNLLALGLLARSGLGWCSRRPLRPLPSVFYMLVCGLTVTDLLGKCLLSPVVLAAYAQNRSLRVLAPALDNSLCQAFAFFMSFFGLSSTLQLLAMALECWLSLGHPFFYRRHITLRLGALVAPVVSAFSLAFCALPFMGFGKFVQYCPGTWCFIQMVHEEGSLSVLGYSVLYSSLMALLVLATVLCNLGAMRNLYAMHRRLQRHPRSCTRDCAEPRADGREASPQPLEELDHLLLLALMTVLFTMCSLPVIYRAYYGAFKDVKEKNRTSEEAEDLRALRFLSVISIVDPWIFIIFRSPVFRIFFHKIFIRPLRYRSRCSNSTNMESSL
Test: SPA cAMP assay in human LS174 T cells (human DP functional assay)
Assay type: cell-based
Conditions: concentration of the compound that produces 50% inhibition in the SPA cAMP assay in human LS174 T cells; PGD2 15 nM final concentration
Description: As used in the examples and preparations that follow, as well as the rest of the application, the terms used therein shall have the meanings indicated: “kg” refers to kilograms, “g” refers to grams, “mg” refers to milligrams, “μg” refers to micrograms, “mol” refers to moles, “mmol” refers to millimoles, “M” refers to molar, “mM” refers to millimolar, “μM” refers to micromolar, “nM” refers to nanomolar, “L” refers to liters, “mL” or “ml” refers to milliliters, “μL” refers to microliters, “° C.” refers to degrees Celsius, “mp” or “m.p.” refers to melting point, “bp” or “b.p.” refers to boiling point, “mm of Hg” refers to pressure in millimeters of mercury, “cm” refers to centimeters, “nm” refers to nanometers, “abs.” refers to absolute, “conc.” refers to concentrated, “c” refers to concentration in g/mL, “rt” refers to room temperature, “TLC” refers to thin layer chromatography, “HPLC” refers to high performance liquid chromatography, “i.p.” refers to intraperitoneally, “i.v.” refers to intravenously, “s”=singlet, “d”=doublet; “t”=triplet; “q”=quartet; “m”=multiplet, “dd”=doublet of doublets; “br”=broad, “LC”=liquid chromatograph, “MS”=mass spectrograph, “ESI/MS”=electrospray ionization/mass spectrograph, “RT”=retention time, “M”=molecular ion, “PSI”=pounds per square inch, “DMSO”=dimethyl sulfoxide, “DMF”=N,N-dimethylformamide, “CDI”=1,1′-carbonyldiimidazole, “DCM” or “CH2Cl2”=dichloromethane, “HCl”=hydrochloric acid, “SPA”=Scintillation Proximity Assay, “ATTC”=American Type Culture Collection, “FBS”=Foetal Bovine Serum, “MEM”=Minimal Essential Medium, “CPM”=Counts Per Minute, “EtOAc”=ethyl acetate, “PBS”=Phosphate Buffered Saline, “TMD”=transmembrane domain, “IBMX”=3-isobutyl-1-methylxanthine, “cAMP”=cyclic adenosine monophosphate, “IUPAC”=International Union of Pure and Applied Chemistry, “MHz”=megahertz, “PEG”=polyethylene glycol, “MeOH”=methanol, “N”=normality, “THF”=tetrahydrofuran, “h”=hours, “min”=minute(s), “MeNH2”=methyl amine, “N2”=nitrogen gas, “O.D.”=outer diameter, “MeCN” or “CH3CN”=acetonitrile, “Et2O”=ethyl ether, “Prep LC”=preparatory “flash” liquid chromatography, “SPE”=solid phase extraction, “K2CO3”=potassium carbonate, “Na2CO3”=sodium carbonate, “pmol”=picomolar, “heptane”=n-heptane, “HMBA-AM” resin=4-hydroxymethylbenzoic acid amino methyl resin, “PdCl2(dppf)2”=1,1′-bis(diphenylphosphino)ferrocene-palladium (II) dichloride DCM complex, “˜”=approximately, and “IC50”=concentration of the compound that produces 50% inhibition in the SPA cAMP assay in human LS174 T cells.
The inhibitory effects of the compounds according to the invention are assessed in a human DP functional assay. A cAMP assay is employed using the human cell line LS174T, which expresses the endogenous DP receptor. The protocol is similar to that described previously (Wright D H, Ford-Hutchinson A W, Chadee K, Metters K M, The human prostanoid DP receptor stimulates mucin secretion in LS174T cells, Br J Pharmacol. 131(8):1537-45 (2000)).
Protocol for SPA cAMP Assay in Human LS174 T Cells
Add 50 μL of […] IBMX into 100 mL PBS to make a final concentration of 100 μM and sonicate at 30° C. for 20 minutes.
Dissolve 1 mg PGD2 (FW, 352.5) in 284 μL DMSO to make 10 mM stock solution and store at […]. Before each assay, it is freshly prepared. Add 3 μL of 10 mM stock solution to 20 mL DMSO, mix it thoroughly, and transfer 10 mL to 40 mL PBS.
Compound dilution is carried out in Biomex 2000 (Beckman) using Method 1_cAMP DP 11 points.
5 μL of each compound from the 10 mM stock compound plates is transferred to the wells of a 96-well plate respectively as below.
Fill the plate with 45 μL of DMSO except column 7 is filled with 28 μL DMSO. Pipette column 1 thoroughly, and transfer 12 μL into column 7 parallel. Perform 1:10 serial dilution from column 1 to column 6 and from column 7 to column 11 by transfer 5 μL to 45 μL DMSO to make following concentrations:
Fill a new 96-well plate with 247.5 μL of compound dilution buffer. […]

SMILES	IC50 [nM]
COc1nc(NCCc2ccc(OC(F)(F)F)cc2)cc(N2CCCC(C(=O)NS(C)(=O)=O)C2)n1 (stereo not shown) [Example 10, N-(1-{2-Methoxy-6-[2-(4-trifluoromethoxy-phenyl)-ethylamino]-pyrimidin-4-yl}-piperidine-3-carbonyl)-methanesulfonamide]	22
COc1nc(NCCc2ccc(Cl)cc2Cl)cc(N2CCCC(C(=O)NS(C)(=O)=O)C2)n1 (stereo not shown) [Example 11(a), N-(1-{6-[2-(2,4-Dichloro-phenyl)-ethylamino]-2-methoxy-pyrimidin-4-yl}-piperidine-3-carbonyl)-methanesulfonamide]	1
COc1nc(NCCc2ccc(OC(F)(F)F)cc2)cc(N2CCCC(C(=O)O)C2)n1 (stereo not shown) [Example 9, 1-{2-Methoxy-6-[2-(4-trifluoromethoxy-phenyl)-ethylamino]-pyrimidin-4-yl}-piperidine-3-carboxylic acid]	9
COc1nc(NCCc2ccc(Cl)cc2Cl)cc(N2CCCC(CC(=O)O)C2)n1 (stereo not shown) [Example 8, (1-{6-[2-(2,4-Dichloro-phenyl)-ethylamino]-2-methoxy-pyrimidin-4-yl}-piperidin-3-yl)-acetic acid]	0.5
COc1nc(NCCc2ccc(Cl)cc2Cl)cc(N2CCC(NC(C)=O)CC2)n1 [Example 5(b), N-(1-{6-[2-(2,4-Dichloro-phenyl)-ethylamino]-2-methoxy-pyrimidin-4-yl}-piperidin-4-yl)-acetamide]	26
COc1nc(NCCc2ccc(Cl)cc2Cl)cc(N2CCCC(C(=O)NS(=O)(=O)C(F)(F)F)C2)n1 (stereo not shown) [Example 11(d), N-(1-{6-[2-(2,4-Dichloro-phenyl)-ethylamino]-2-methoxy-pyrimidin-4-yl}-piperidine-3-carbonyl)-C,C,C-trifluoro-methanesulfonamide]	18
COc1nc(NCCc2ccc(Cl)cc2Cl)cc(N2CCC(C(=O)O)C2)n1 (stereo not shown) [Example 1]	9
COc1nc(NCCc2ccc(Cl)cc2Cl)cc(-c2cc(C(C)(C)O)cc(C(C)(C)O)c2)n1 [Example 3, 2-[3-{6-[2-(2,4-Dichloro-phenyl)-ethylamino]-2-methoxy-pyrimidin-4-yl}-5-(1-hydroxy-1-methyl-ethyl)-phenyl]-propan-2-ol]	730
COc1nc(NCCc2ccc(Cl)cc2Cl)cc(N2CCCC(C(=O)NS(=O)(=O)N(C)C)C2)n1 (stereo not shown) [Example 11(h), N,N-Dimethylamide-2-sulfonic acid 1-{6-[2-(2,4-dichloro-phenyl)-ethylamino]-2-methoxy-pyrimidin-4-yl}-piperidine-3-carboxamide]	14
COc1nc(NCCc2ccc(Cl)cc2Cl)cc(-c2ccc3c(c2)CC(C(=O)O)O3)n1 (stereo not shown) [Example 13, 5-{6-[2-(2,4-Dichloro-phenyl)-ethylamino]-2-methoxy-pyrimidin-4-yl}-2,3-dihydro-benzofuran-2-carboxylic acid hydrochloride]	2
COc1nc(NCCc2ccc(OC(F)(F)F)cc2)cc(-c2ccc(C(=O)O)s2)n1 [Example 12, 5-{2-Methoxy-6-[2-(4-trifluoromethoxy-phenyl)-ethylamino]-pyrimidin-4-yl}-thiophene-2-carboxylic acid]	2

The remaining lines, values ahead:

IC50 [nM]	SMILES
4.4	COc1nc(NCCc2ccc(Cl)cc2Cl)cc(N2CCCC(C(=O)Nc3nnn[nH]3)C2)n1 (stereo not shown) [Example 11(e), 1-{6-[2-(2,4-Dichloro-phenyl)-ethylamino]-2-methoxy-pyrimidin-4-yl}-piperidine-3-carboxylic acid (1H-tetrazol-5-yl)-amide]
985	COc1nc(NCCc2ccc(Cl)cc2Cl)cc(N2CCCC(N)C2)n1 (stereo not shown) [Example 4, [6-(3-Amino-piperidin-1-yl)-2-methoxy-pyrimidin-4-yl]-[2-(2,4-dichloro-phenyl)-ethyl]-amine]
2	COc1nc(NCCc2ccc(Cl)cc2Cl)cc(-c2cccc(C(C)(C)C(=O)NS(=O)(=O)C(C)(C)C)c2)n1 [Example 7(a), 2-Methyl-propane-2-sulfonic acid [2-(3-{6-[2-(2,4-dichloro-phenyl)-ethylamino]-2-methoxy-pyrimidin-4-yl}-phenyl)-2-methyl-propionyl]-amide]
383	COc1nc(NCCc2ccc(Cl)cc2Cl)cc(-c2cccc(C(C)(C)C(=O)N3CCSCC3)c2)n1 [Example 7(c), 2-(3-{6-[2-(2,4-Dichloro-phenyl)-ethylamino]-2-methoxy-pyrimidin-4-yl}-phenyl)-2-methyl-1-thiomorpholin-4-yl-propan-1-one]
2	COc1nc(NCCc2ccc(OC(F)(F)F)cc2)cc(N2CCCC(C(C)(C)C(=O)O)C2)n1 (stereo not shown) [Example 2, 2-(1-{2-Methoxy-6-[2-(4-trifluoromethoxy-phenyl)-ethylamino]-pyrimidin-4-yl}-piperidin-3-yl)-2-methyl-propionic acid]
